Among the data in ChEMBL document CHEMBL1151103, “Studies on cytotoxic constituents in pericarps of Mallotus japonicus, Part III” (1988) are EC50 values, retold here.

≈ marks a conversion by molar mass, not a printed value.

This experiment concerns KB. As to the kind of experiment: Cytotoxicity against human KB cells. The following applies: read-out: ED50 (the source's name). In kind it is functional.
Take `CCCC(=O)c1c(O)c(Cc2c(O)c(C(C)=O)c(O)c(C)c2OC)c(O)c2c1OC(C)(C)C=C2` [BUTYRYLMALLOTOCHROMENE]: the EC50 was found to be 3.3 µg/mL (≈ 7.01 µM).
The figure for `COc1c(C)c(O)c(C(C)=O)c(OC)c1Cc1c(O)c(C(=O)C(C)C)c2c(c1OC)C=CC(C)(C)O2` is 5.5 µg/mL (≈ 11 µM); for `COc1c(C)c(O)c(C(C)=O)c(O)c1Cc1c(O)c2c(c(C(=O)C(C)C)c1O)OC(C)(C)C=C2` [ISOBUTYRYLMALLOTOCHROMENE] it is 0.4 µg/mL (≈ 0.85 µM); for `CCCC(=O)c1c2c(c(OC(C)=O)c(Cc3c(OC)c(C)c(OC(C)=O)c(C(C)=O)c3OC(C)=O)c1OC(C)=O)C=CC(C)(C)O2` it is 2.55 µg/mL (≈ 3.99 µM).
The figure for `CCCC(=O)c1c(O)c(Cc2c(OC)c(C)c(O)c(C(C)=O)c2OC)c(OC)c2c1OC(C)(C)C=C2` is 5.9 µg/mL (≈ 11.8 µM); for `COc1c(C)c(OC(C)=O)c(C(C)=O)c(OC(C)=O)c1Cc1c(OC(C)=O)c2c(c(C(=O)C(C)C)c1OC(C)=O)OC(C)(C)C=C2` it is 2.65 µg/mL (≈ 4.15 µM).
